Structures are written as SMILES.

The first assay deals with IN-GCN2 interaction (6xHis-IN / GST-GCN2) (UniProt P04585+Q9P2K8). Put plainly: biochemical. Type of assay: binding, HIV-1 IN; human GCN2. The conditions noted are these: screen, single dose 100 µM, single replicate; residual AlphaLISA signal normalized to DMSO control. A general note: In Alpha technology, singlet oxygen from a donor bead excites a nearby acceptor bead.
IN-GCN2 interaction (6xHis-IN / GST-GCN2), sequence (Q9P2K8 192-1024, other chains not shown): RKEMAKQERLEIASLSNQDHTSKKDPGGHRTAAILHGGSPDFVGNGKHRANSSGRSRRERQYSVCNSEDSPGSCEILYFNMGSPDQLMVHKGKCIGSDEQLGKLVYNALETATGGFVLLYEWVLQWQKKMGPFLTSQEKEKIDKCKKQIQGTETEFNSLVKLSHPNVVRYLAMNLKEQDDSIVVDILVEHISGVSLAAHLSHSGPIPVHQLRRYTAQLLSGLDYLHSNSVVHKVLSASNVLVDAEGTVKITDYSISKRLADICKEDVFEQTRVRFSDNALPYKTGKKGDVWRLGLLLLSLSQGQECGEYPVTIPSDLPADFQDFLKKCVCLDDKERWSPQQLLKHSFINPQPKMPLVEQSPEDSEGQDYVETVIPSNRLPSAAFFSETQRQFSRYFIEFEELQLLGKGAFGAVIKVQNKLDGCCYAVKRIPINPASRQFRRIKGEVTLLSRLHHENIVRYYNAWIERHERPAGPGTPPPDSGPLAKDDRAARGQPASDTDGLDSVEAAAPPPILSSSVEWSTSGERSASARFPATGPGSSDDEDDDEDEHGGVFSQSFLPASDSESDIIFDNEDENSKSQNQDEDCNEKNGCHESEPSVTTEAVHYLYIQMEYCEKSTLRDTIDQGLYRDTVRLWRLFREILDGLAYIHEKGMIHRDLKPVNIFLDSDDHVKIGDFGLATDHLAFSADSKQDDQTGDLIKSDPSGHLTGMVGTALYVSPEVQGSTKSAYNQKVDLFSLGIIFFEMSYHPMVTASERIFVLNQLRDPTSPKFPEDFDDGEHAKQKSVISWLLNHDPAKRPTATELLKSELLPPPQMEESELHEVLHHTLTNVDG
Consider `C[C@@H]1O[C@@H](O[C@@H]2C=C3CC[C@@H]4[C@H](CC[C@]5(C)[C@@H](c6ccc(=O)oc6)CC[C@]45O)[C@@]3(C)CC2)[C@H](O)[C@H](O)[C@H]1O[C@@H]1O[C@H](CO)[C@@H](O)[C@H](O)[C@H]1O` [NSC7525], for which the “IN-GCN2 interaction (%)” value is on record as 99.88%.
On the same count and under the same terms, the figure for `CC(=O)O[C@H]1C[C@H](O[C@H]2[C@@H](O)C[C@H](O[C@H]3[C@@H](O)C[C@H](O[C@H]4CC[C@@]5(C)[C@H](CC[C@@H]6[C@@H]5CC[C@]5(C)[C@@H](C7=CC(=O)OC7)CC[C@]65O)C4)O[C@@H]3C)O[C@@H]2C)O[C@H](C)[C@H]1O[C@@H]1O[C@H](CO)[C@@H](O)[C@H](O)[C@H]1O` [NSC7532] is 117.74%.
With `CC(=O)O[C@H]1C[C@H](O[C@H]2[C@@H](O)C[C@H](O[C@H]3[C@@H](O)C[C@H](O[C@H]4CC[C@@]5(C)[C@H](CC[C@@H]6[C@@H]5C[C@@H](O)[C@]5(C)[C@@H](C7=CC(=O)OC7)CC[C@]65O)C4)O[C@@H]3C)O[C@@H]2C)O[C@H](C)[C@H]1O[C@@H]1O[C@H](CO)[C@@H](O)[C@H](O)[C@H]1O` [NSC7533], the “IN-GCN2 interaction (%)” value is reported as 107.72%.
Still for that read-out and setting: to `CC(=O)O[C@H]1C[C@H](O[C@H]2[C@@H](O)C[C@H](O[C@H]3[C@@H](O)C[C@H](O[C@H]4CC[C@@]5(C)[C@H](CC[C@@H]6[C@@H]5CC[C@]5(C)[C@@H](C7=CC(=O)OC7)[C@@H](O)C[C@]65O)C4)O[C@@H]3C)O[C@@H]2C)O[C@H](C)[C@H]1O[C@@H]1O[C@H](CO)[C@@H](O)[C@H](O)[C@H]1O` [NSC7535] belongs 83.30%; to `NC(=O)NC1NC(=O)NC1=O` (stereo not drawn) [NSC7606], 88.72%; to `O=C(O)/C=C(/CC(=O)O)C(=O)O` [NSC7616], 85.71%.
On the same count and under the same terms, the figure for `Nc1ncnc2c1ncn2[C@@H]1O[C@H](CO)[C@@H](O)[C@H]1O` [NSC7652] is 51.17%.
Same read-out and setting: the figure for `O=C(O)CCCCCCC[C@@H](O)[C@@H](O)CCCCCCO` [NSC7668] is 129.82%; for `COc1c2occc2c(OC)c2c(=O)cc(C)oc12` [NSC8519] it is 129.74%.
Take `Oc1ccc2c(c1)OC[C@]1(O)Cc3cc(O)c(O)cc3[C@H]21` [NSC8661]: the “IN-GCN2 interaction (%)” value is recorded as 86.68%.
Same read-out and setting: to `C/C=C/C(=O)O` [NSC8751] belongs 85.97%.
In the case of `C[C@H](CCC(=O)O)[C@H]1CC[C@H]2[C@@H]3CC[C@@H]4C[C@H](O)CC[C@]4(C)[C@H]3C[C@H](O)[C@]12C` [NSC8797], the “IN-GCN2 interaction (%)” value amounted to 85.28%.
Same read-out and setting: to `CC(C)[C@H]1CC[C@@](C)(C(=O)O)C1` [NSC8973] belongs 89.12%; to `O=C(O)C1OC(O)C(O)C(O)C1O` (stereo not drawn) [NSC9248], 110.72%; to `CO[C@@H]1[C@H](O)CC[C@]2(CO2)[C@H]1[C@@]1(C)O[C@@H]1CC=C(C)C` [NSC9665], 118.70%.
Still for that read-out and setting: the figure for `C[C@]12CC[C@@H]3c4ccc(O)cc4CC[C@H]3[C@@H]1CCC2=O` [NSC9699] is 98.84%.
On to `COc1cc2c(cc1OC)CN1CCc3cc(OC)c(OC)cc3C1C2` (stereo not drawn) [NSC10105], for which the “IN-GCN2 interaction (%)” value amounted to 96.86%.
Consider `CN1CCc2cc3c(cc2C(=O)Cc2ccc4c(c2C1)OCO4)OCO3.Cl` [NSC11440], for which the “IN-GCN2 interaction (%)” value is 160.70%.
For `COc1ccc(/C=C/C(=O)c2ccccc2)cc1` [NSC11866], the “IN-GCN2 interaction (%)” value is recorded as 81.82%.
On to `CC(C)=CCC1=C(O)c2ccccc2C(=O)C1=O` [NSC11905], for which the “IN-GCN2 interaction (%)” value is given as 107.31%.
Same read-out and setting: the figure for `COc1cccc2c1cc([N+](=O)[O-])c1c(C(=O)O)cc3c(c12)OCO3` [NSC11926] is 137.25%; for `O=c1ccc2nc3ccc(O)cc3oc-2c1` [NSC12097] it is 169.88%; for `O=C(O)C1C2CC3OC(=O)C1C3C2` (stereo not drawn) [NSC12444] it is 94.03%.
On to `Br.C=CC1CN2CCC1CC2C(O)c1ccnc2ccc(OC)cc12` (stereo not drawn) [NSC12865], for which the “IN-GCN2 interaction (%)” value is recorded as 97.92%.
For `CN1CC(=O)NC1=N` [NSC13123], the “IN-GCN2 interaction (%)” value worked out at 106.95%.
Take `CN(C)[C@@H]1C(O)=C(C(N)=O)C(=O)[C@@]2(O)C(O)=C3C(=O)c4c(O)ccc(Cl)c4[C@@](C)(O)[C@H]3C[C@@H]12` [NSC13252]: the “IN-GCN2 interaction (%)” value turned out to be 93.93%.
In the case of `COc1cc(O)c(C(C)=O)c2c1C=CC(C)(C)O2` [NSC14135], the “IN-GCN2 interaction (%)” value is given as 87.24%.
Still for that read-out and setting: the figure for `O=c1[nH]c(=O)c2[nH]cnc2[nH]1` [NSC14664] is 105.35%; for `O=c1[nH]cnc2nc[nH]c12` [NSC14665] it is 108.10%; for `CC1=CC(O)C(O)C2(C)C1CC1OC(=O)C(O)C3C(C)C(O)C4(O)OCC13C42` (stereo not drawn) [NSC14974] it is 90.88%.
Still for that read-out and setting: to `CC[C@](C)(O)C(=O)O[C@H]1C(=O)O[C@@H]2C[C@H]3C(C)=C[C@H](O)[C@@H](O)[C@]3(C)[C@H]3[C@]4(O)OC[C@]32[C@@H]1[C@@H](C)[C@H]4O` [NSC14975] belongs 117.58%; to `C=C[C@H]1CN2CC[C@H]1C[C@H]2C(=O)c1ccnc2ccc(OC)cc12` [NSC15307], 84.16%; to `COC(=O)C1=CO[C@@H](C)[C@@H]2CN3CCc4c([nH]c5cc(OC)ccc45)[C@@H]3C[C@H]12` [NSC15624], 43.70%.
Still for that read-out and setting: to `N#C[C@H](O[C@@H]1O[C@H](CO[C@@H]2O[C@H](CO)[C@@H](O)[C@H](O)[C@H]2O)[C@@H](O)[C@H](O)[C@H]1O)c1ccccc1` [NSC15780] belongs 121.81%.
`O=C(O)c1ccc(O)c(O)c1` [NSC16631]: the “IN-GCN2 interaction (%)” value came to 69.74%.
The same measure, in the same setting: the figure for `O=c1cc(-c2ccccc2)oc2ccccc12` [NSC19028] is 58.68%; for `COc1ccc(/C=C/C(=O)c2c(OC)cc(OC)c(OC)c2O)cc1` [NSC19038] it is 50.51%.
Consider `COC(=O)[C@@H]1[C@H]2C[C@H]3c4[nH]c5ccccc5c4CCN3C[C@@H]2CC[C@@H]1O` [NSC19509], for which the “IN-GCN2 interaction (%)” value turned out to be 68.27%.
As for `COC(=O)[C@@H]1[C@H](O)[C@H](C)[C@H](O)[C@H](C)/C=C\C=C(/C)C(=O)Nc2c(C)c(OC(C)=O)c3c(c2O)C(=O)C(C)=C2OCOC(=C23)/C(C)=C/[C@@](C)(O)[C@H](O)[C@@H](C)[C@H]1O` [NSC19990], the “IN-GCN2 interaction (%)” value was 69.46%.
Take `O=C(O)c1cc(O)c(O)c(O)c1` [NSC20103]: the “IN-GCN2 interaction (%)” value worked out at 83.04%.
`Nc1ncnc2c1ncn2[C@@H]1O[C@H](COP(=O)(O)O)[C@@H](O)[C@H]1O` [NSC20264]: the “IN-GCN2 interaction (%)” value came out at 82.61%.
On the same count and under the same terms, to `O=c1cccc2n1C[C@H]1C[C@@H]2CN2CCCC[C@@H]12` [NSC21725] belongs 90.50%; to `O=[N+]([O-])[O-].c1ccc2c(c1)[nH]c1c2cc[n+]2cc3c(cc12)CCCC3` [NSC21728], 107.16%.
With `C=C1C(=O)O[C@H]2C[C@@]3(C)O[C@@H]3CC/C(C)=C/[C@@H](OC(C)=O)[C@H]12` [NSC22070], the “IN-GCN2 interaction (%)” value came to 135.82%.
On the same count and under the same terms, the figure for `O=c1oc2cc(O)ccc2c2oc3cc(O)ccc3c12` [NSC22842] is 123.61%.
On the same count and under the same terms, the figure for `CCC(C)c1cnc(CC(C)C)c(=O)n1O` (stereo not drawn) [NSC22939] is 88.97%.
For `O=c1ccn([C@H]2C[C@H](O)[C@@H](CO)O2)c(=O)[nH]1` [NSC23615], the “IN-GCN2 interaction (%)” value turned out to be 82.13%.
On the same count and under the same terms, the figure for `COC1=CC(=O)OC(CCc2ccc3c(c2)OCO3)C1` (stereo not drawn) [NSC23878] is 70.38%; for `COc1cc([C@@H]2c3cc4c(c(O)c3C[C@H]3COC(=O)[C@@H]32)OCO4)cc(OC)c1OC` [NSC24819] it is 89.45%.
As for `C/C(=C\CC1=C(O)c2ccccc2C(=O)C1=O)CO` [NSC24872], the “IN-GCN2 interaction (%)” value is listed as 132.67%.
Still for that read-out and setting: to `O=C1C[C@@H]2OCC=C3C[N+]4([O-])CC[C@]56c7ccccc7N1[C@H]5[C@H]2[C@H]3C[C@@H]64` (stereo partly drawn) [NSC24951] belongs 106.44%.
On to `COC1[C@H](O)[C@@H](O)C(O)[C@H](O)[C@H]1O` (stereo partly drawn) [NSC26254], for which the “IN-GCN2 interaction (%)” value was determined as 90.47%.
On to `C=C(C)[C@H]1Cc2c(ccc3c2O[C@@H]2COc4cc(OC)c(OC)cc4[C@@H]2C3=O)O1` [NSC26258], for which the “IN-GCN2 interaction (%)” value came out at 55.12%.
In the case of `O=P1(N(CCCl)CCCl)NCCCO1` (stereo not drawn) [NSC26271], the “IN-GCN2 interaction (%)” value is given as 117.66%.
Still for that read-out and setting: the figure for `CC1(C)CCC2=C(O1)c1ccccc1C(=O)C2=O` [NSC26326] is 107.59%.
On the same count and under the same terms, the figure for `CC1(C)CCC2=C(O1)C(=O)c1ccccc1C2=O` [NSC26327] is 99.02%; for `NC(=O)NCCC[C@H](N)C(=O)O` [NSC27425] it is 90.90%.
Still for that read-out and setting: the figure for `O=C([O-])c1nc(=O)[nH]c(=O)[nH]1.[K+]` [NSC28841] is 85.56%; for `COC(=O)C1C2CC3c4[nH]c5cc(OC)ccc5c4CCN3CC2CC(OC(=O)CCc2cc(OC)c(OC)c(OC)c2)C1OC` (stereo not drawn) [NSC29854] it is 63.08%.
For the compound `O=C(O)/C(O)=C(/O)C(=O)O` [NSC30238], the “IN-GCN2 interaction (%)” value stood at 100.21%.
On the same count and under the same terms, to `COc1c(O)cc2oc3cc(O)c(CC=C(C)C)c(O)c3c(=O)c2c1CC=C(C)C` [NSC30552] belongs 60.59%; to `C/C=C(/C)C(=O)O[C@H]1CCN2CC=C(COC(=O)[C@@](O)([C@H](C)OC)C(C)(C)O)[C@H]12` [NSC30625], 106.60%.
Same read-out and setting: to `COc1ccc([C@@H]2CC(=O)c3c(O)cc(O[C@@H]4O[C@H](CO[C@@H]5O[C@@H](C)[C@H](O)[C@@H](O)[C@H]5O)[C@@H](O)[C@H](O)[C@H]4O)cc3O2)cc1O` [NSC31048] belongs 142.54%; to `O=C1c2ccccc2C(=O)c2c1cc(O)c(O)c2O` [NSC31754], 87.55%; to `CCCCCc1cc(O)cc2c1Oc1cc(O)cc(C(=O)CCCC)c1C(=O)O2` [NSC31867], 101.08%.

Staying with this assay, now noted: screen, single dose 100 µM, single replicate; residual AlphaLISA signal normalized to DMSO control; listed as 18805.
Turning to `CC(C)c1ccc(O)c(=O)cc1` [NSC18805], the “IN-GCN2 interaction (%)” value stood at 75.92%.

For the origin of these results see publication PMC12390684 (Viruses, 2025).
